Where a SMILES comes first, the peptide text is derived from it. Bridges are numbered along the chain shown (N, C = ends).
Experiments:
[1] = molecular target: T1, Glucagon-like peptide 1 receptor (Homo sapiens, UniProt P43220); assay: Agonist activity at Rluc8 fused human GLP1 receptor expressed in HEK293 cells assessed co-expressing GFP-tagged beta-arrestin2 assessed as increase in beta-arrestin2 recruitment after 20 to 40 mins by BRET assay; assay type: cell-based
[2] = molecular target: T1, Glucagon-like peptide 1 receptor; assay: Agonist activity at human GLP1 receptor expressed in HEK293 cells assessed as increase in cAMP accumulation after 24 hrs by luciferase reporter gene assay; assay type: functional, cell-based
[3] = molecular target: T1, Glucagon-like peptide 1 receptor; assay: Agonist activity at Rluc8 fused human GLP1 receptor expressed in HEK293 cells assessed co-expressing GFP-tagged beta-arrestin1 assessed as increase in beta-arrestin1 recruitment after 20 to 40 mins by BRET assay; assay type: cell-based
[4] = molecular target: 5-hydroxytryptamine receptor 1B (Homo sapiens) (UniProt P28222)
Sequence of 5-hydroxytryptamine receptor 1B (Homo sapiens) (P28222 whole entry): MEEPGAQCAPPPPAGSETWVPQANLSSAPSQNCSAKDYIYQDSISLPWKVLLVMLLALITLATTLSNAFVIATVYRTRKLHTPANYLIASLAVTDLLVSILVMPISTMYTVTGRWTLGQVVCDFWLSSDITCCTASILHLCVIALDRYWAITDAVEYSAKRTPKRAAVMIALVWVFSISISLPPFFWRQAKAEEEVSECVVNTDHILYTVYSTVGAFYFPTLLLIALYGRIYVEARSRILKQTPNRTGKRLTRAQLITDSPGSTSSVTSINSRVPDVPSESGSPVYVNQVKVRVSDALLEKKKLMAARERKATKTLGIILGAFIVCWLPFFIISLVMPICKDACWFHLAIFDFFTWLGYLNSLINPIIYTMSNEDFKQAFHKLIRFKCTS

[5] = molecular target: 5-hydroxytryptamine receptor 1B (Homo sapiens) (UniProt P28222); remark: listed apart in the source
[6] = molecular target: 5-hydroxytryptamine receptor 2B (Homo sapiens) (UniProt P41595)
Sequence of 5-hydroxytryptamine receptor 2B (Homo sapiens) (P41595 whole entry): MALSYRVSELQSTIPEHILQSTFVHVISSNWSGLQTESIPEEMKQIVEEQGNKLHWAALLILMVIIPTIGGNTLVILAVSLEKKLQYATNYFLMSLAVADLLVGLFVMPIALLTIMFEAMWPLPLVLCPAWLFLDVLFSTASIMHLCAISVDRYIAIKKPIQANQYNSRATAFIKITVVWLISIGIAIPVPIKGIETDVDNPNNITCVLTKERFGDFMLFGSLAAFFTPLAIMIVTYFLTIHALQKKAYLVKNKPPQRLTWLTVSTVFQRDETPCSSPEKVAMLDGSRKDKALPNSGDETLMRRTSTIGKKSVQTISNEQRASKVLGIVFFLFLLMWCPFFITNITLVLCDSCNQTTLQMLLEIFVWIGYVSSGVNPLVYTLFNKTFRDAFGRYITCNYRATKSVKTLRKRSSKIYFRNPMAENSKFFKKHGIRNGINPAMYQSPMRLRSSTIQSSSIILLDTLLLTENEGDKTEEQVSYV

[7] = molecular target: 5-hydroxytryptamine receptor 2B (Homo sapiens) (UniProt P41595); remark: listed apart in the source
[8] = molecular target: T2, Endothelin-1 receptor (Homo sapiens) (UniProt P25101); assay: Agonist activity at ETA receptor (unknown origin) by saphenous vein contraction assay
T2 sequence (whole entry): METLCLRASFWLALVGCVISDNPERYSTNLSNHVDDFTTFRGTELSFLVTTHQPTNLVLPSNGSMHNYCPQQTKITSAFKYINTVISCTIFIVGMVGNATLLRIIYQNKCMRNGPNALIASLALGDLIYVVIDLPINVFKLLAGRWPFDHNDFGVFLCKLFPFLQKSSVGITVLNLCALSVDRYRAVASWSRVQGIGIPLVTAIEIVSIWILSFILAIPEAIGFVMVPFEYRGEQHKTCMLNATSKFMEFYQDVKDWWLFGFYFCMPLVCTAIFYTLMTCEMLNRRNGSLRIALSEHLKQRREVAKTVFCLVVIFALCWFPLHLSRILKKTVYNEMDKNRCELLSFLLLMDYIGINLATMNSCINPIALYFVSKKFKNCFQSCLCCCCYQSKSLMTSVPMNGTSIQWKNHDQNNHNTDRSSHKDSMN

[9] = molecular target: T2, Endothelin-1 receptor (Homo sapiens); assay: Ratio of compound agonist effect for ETA receptor (unknown origin) assessed as increase in beta-arrestin recruitment to compound agonist effect for ETA receptor (unknown origin) by saphenous vein contraction assay
[10] = molecular target: T2, Endothelin-1 receptor (Homo sapiens); assay: Agonist activity at ETA receptor (unknown origin) assessed as increase in beta-arrestin recruitment
[11] = molecular target: T3, Adenosine receptor A1 (Homo sapiens) (UniProt P30542)
T3 sequence (whole entry): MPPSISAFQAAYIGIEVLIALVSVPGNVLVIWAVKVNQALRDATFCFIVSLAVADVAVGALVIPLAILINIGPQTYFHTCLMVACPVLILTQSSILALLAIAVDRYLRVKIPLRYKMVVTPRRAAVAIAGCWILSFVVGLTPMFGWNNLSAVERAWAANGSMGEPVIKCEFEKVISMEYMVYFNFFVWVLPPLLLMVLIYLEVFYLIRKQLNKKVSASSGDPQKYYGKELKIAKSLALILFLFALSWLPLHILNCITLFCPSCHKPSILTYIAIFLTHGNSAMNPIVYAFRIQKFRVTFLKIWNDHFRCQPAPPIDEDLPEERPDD

[12] = molecular target: T3, Adenosine receptor A1 (Homo sapiens); assay: Agonist activity at adenosine A1 receptor (unknown origin) expressed in FlpIn-CHO cells assessed as increase in ERK1/2 phosphorylation; assay type: cell-based
[13] = molecular target: T4, Type-1 angiotensin II receptor (Homo sapiens, UniProt P30556); assay: Binding affinity to human AT1 receptor
T4 sequence (P30556 whole entry): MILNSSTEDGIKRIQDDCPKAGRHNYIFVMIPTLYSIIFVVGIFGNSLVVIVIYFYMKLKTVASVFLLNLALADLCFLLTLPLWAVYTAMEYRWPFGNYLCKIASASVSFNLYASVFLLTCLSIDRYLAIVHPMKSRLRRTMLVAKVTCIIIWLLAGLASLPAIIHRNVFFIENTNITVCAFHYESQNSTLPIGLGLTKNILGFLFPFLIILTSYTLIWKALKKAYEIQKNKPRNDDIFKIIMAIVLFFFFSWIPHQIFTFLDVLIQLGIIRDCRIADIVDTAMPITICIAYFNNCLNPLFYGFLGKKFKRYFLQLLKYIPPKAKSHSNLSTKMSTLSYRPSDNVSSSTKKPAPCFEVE

D(2) dopamine receptor [14] = molecular target: T5, D(2) dopamine receptor (Homo sapiens, UniProt P14416); assay: Agonist activity at dopamine D2 receptor (unknown origin) assessed as increase in beta-arrestin-2 recruitment relative to control
T5 sequence (P14416 whole entry): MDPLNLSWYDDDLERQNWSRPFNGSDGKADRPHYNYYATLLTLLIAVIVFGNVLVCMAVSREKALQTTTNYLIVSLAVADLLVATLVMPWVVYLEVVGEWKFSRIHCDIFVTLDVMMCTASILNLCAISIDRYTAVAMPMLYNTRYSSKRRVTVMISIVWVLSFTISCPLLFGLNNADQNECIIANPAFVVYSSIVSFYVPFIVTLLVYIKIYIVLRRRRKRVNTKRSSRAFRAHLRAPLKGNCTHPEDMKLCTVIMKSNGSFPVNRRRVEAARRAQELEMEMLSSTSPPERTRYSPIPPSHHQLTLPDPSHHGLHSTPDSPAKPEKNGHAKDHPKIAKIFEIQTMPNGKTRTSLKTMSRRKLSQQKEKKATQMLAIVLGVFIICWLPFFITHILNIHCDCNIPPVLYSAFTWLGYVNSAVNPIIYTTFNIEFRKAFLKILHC

D(2) dopamine receptor [15] = molecular target: T5, D(2) dopamine receptor; assay: Agonist activity at dopamine D2 receptor (unknown origin) by cAMP accumulation assay relative to control; assay type: functional
[16] = molecular target: T2, Endothelin-1 receptor (Homo sapiens)
[17] = molecular target: T6, Endothelin receptor type B (Homo sapiens) (UniProt P24530)
T6 sequence (whole entry): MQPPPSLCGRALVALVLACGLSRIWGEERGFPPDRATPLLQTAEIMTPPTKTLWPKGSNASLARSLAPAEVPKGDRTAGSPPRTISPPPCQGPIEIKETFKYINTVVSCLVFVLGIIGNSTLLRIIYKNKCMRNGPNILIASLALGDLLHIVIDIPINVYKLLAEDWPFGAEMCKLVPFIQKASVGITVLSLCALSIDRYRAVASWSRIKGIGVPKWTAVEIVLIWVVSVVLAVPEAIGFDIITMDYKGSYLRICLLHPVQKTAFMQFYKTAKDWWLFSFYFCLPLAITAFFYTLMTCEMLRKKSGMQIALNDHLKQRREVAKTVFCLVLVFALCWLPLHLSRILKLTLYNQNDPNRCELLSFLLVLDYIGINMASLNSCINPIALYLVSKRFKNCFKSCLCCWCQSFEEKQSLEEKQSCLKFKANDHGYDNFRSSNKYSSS

[18] = molecular target: T7, C-X-C chemokine receptor type 3 (Homo sapiens) (UniProt P49682); assay: Negative allosteric modulation activity at prolink-tagged CXCR3 (unknown origin) expressed in HEK293 cells harboring beta-galactosidase enzyme assessed as inhibition of CXCL11-induced beta-arrestin2 recruitment after 4 hrs by chemiluminescence assay; assay type: cell-based
T7 sequence (whole entry): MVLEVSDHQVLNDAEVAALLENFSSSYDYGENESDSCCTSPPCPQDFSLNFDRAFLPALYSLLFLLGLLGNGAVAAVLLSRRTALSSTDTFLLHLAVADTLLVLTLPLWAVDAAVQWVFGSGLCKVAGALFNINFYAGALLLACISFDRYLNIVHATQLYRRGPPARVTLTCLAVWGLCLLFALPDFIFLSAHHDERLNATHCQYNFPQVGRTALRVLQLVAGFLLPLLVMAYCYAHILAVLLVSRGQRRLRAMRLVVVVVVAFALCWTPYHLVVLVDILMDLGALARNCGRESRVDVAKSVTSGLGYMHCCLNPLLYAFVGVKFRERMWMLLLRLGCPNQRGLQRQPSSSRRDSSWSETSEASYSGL

[19] = molecular target: T7, C-X-C chemokine receptor type 3 (Homo sapiens); assay: Negative allosteric modulation activity at CXCR3 (unknown origin) expressed in HEK293 cell membranes assessed as increase in [35S]-GTPgammaS binding after 1 hr by scintillation counting assay; assay type: functional
[20] = molecular target: T7, C-X-C chemokine receptor type 3 (Homo sapiens); assay: Ratio of pKb for CXCR3 (unknown origin) expressed in HEK293 cell membranes assessed as increase in [35S]-GTPgammaS binding to pKb for prolink-tagged CXCR3 (unknown origin) expressed in HEK293 cells harboring beta-galactosidase enzyme assessed as inhibition of CXCL11-induced beta-arrestin2 recruitment; assay type: functional

T1 sequence (P43220 whole entry, the tested form may be a part): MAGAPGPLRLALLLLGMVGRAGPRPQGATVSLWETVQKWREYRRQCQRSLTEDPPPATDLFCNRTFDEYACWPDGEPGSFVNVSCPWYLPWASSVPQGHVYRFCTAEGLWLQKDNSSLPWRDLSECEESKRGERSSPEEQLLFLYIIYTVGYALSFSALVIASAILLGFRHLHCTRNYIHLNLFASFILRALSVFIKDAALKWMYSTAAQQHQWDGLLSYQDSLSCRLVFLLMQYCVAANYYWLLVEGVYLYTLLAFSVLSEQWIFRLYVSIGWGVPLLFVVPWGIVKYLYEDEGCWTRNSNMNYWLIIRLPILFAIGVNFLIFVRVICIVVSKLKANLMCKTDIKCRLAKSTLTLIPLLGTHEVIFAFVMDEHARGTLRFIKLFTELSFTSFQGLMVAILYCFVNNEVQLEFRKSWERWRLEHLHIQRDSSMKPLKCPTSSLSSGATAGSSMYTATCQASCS

## CC[C@H](C)[C@H](NC(=O)[C@H](Cc1ccccc1)NC(=O)[C@H](CCC(=O)O)NC(=O)[C@H]1CCC[C@@H]1NC(=O)[C@H](C)NC(=O)[C@H](C)NC(=O)[C@H](CCC(N)=O)NC(=O)[C@H]1CCC[C@@H]1NC(=O)[C@H](CCC(=O)O)NC(=O)[C@H](CC(C)C)NC(=O)[C@H](Cc1ccc(O)cc1)NC(=O)[C@H]1CCC[C@@H]1NC(=O)[C@H](CO)NC(=O)[C@@H](NC(=O)[C@H](CC(=O)O)NC(=O)[C@H](CO)NC(=O)[C@@H](NC(=O)[C@H](Cc1ccccc1)NC(=O)[C@@H](NC(=O)CNC(=O)[C@H](CCC(=O)O)NC(=O)[C@H](C)NC(=O)[C@@H](N)Cc1cnc[nH]1)[C@@H](C)O)[C@@H](C)O)C(C)C)C(=O)N[C@H]1CCC[C@@H]1C(=O)N[C@@H](Cc1c[nH]c2ccccc12)C(=O)N[C@@H](CC(C)C)C(=O)N[C@H](C(=O)N[C@@H](CCCCN)C(=O)NCC(=O)N[C@@H](CCCNC(=N)N)C(=O)NCC(N)=O)C(C)C
[1]
  EC50: 10 nM
[2]
  EC50: 3.98 nM
[3]
  EC50: 31.6 nM

## CN1C[C@H](C(=O)N[C@]2(C)O[C@@]3(O)[C@@H]4CCCN4C(=O)[C@H](Cc4ccccc4)N3C2=O)C=C2c3cccc4[nH]cc(c34)C[C@H]21
[4]
  log(Tau/KA): 8.53
[5]
  log(Tau/KA): 7.82
[6]
  log(Tau/KA): 5.95
[7]
  log(Tau/KA): 7.05

## CC[C@H](C)[C@H](NC(=O)[C@H](CC(=O)O)NC(=O)[C@H](CC(C)C)NC(=O)[C@H](Cc1cnc[nH]1)NC(=O)[C@@H]1CSSC[C@H](N)C(=O)N[C@H]([C@H](C)O)C(=O)N[C@H]2CSSC[C@H](NC(=O)[C@H](CCC(=O)O)NC(=O)[C@H](CCCCN)NC(=O)[C@H](CC(=O)O)NC(=O)[C@H](CCCCN)NC(=O)[C@H](Cc3ccc(O)cc3)NC(=O)[C@H]([C@@H](C)O)NC(=O)[C@H](Cc3ccccc3)NC2=O)C(=O)N[C@@H](C(C)C)C(=O)N[C@@H](Cc2ccc(O)cc2)C(=O)N[C@@H](Cc2ccc(O)cc2)C(=O)N1)C(=O)N[C@H](C(=O)N[C@@H](Cc1ccc(O)cc1)C(=O)O)[C@@H](C)CC
[8]
  log(Tau/KA): 6.8
[9]
  Ratio: 4
[10]
  log(Tau/KA): 7.11

## CC[C@H](C)[C@H](NC(=O)[C@H](CC(=O)O)NC(=O)[C@H](CC(C)C)NC(=O)[C@H](Cc1cnc[nH]1)NC(=O)[C@@H]1CSSC[C@H](N)C(=O)N[C@@H](CO)C(=O)N[C@H]2CSSC[C@H](NC(=O)[C@H](CCC(=O)O)NC(=O)[C@H](CCCCN)NC(=O)[C@H](CC(=O)O)NC(=O)[C@H](CC(C)C)NC(=O)[C@H](Cc3c[nH]c4ccccc34)NC(=O)[C@H](CO)NC(=O)[C@H](CO)NC2=O)C(=O)N[C@@H](C(C)C)C(=O)N[C@@H](Cc2ccc(O)cc2)C(=O)N[C@@H](Cc2ccccc2)C(=O)N1)C(=O)N[C@H](C(=O)N[C@@H](Cc1c[nH]c2ccccc12)C(=O)O)[C@@H](C)CC (H-CSCSSWLDKECVYFCHLDIIW-OH; disulfide 1-15, 3-11)
[8]
  log(Tau/KA): 8.26
[9]
  Ratio: 3.1
[10]
  log(Tau/KA): 8.67

## CC[C@H](C)[C@H](NC(=O)[C@H](Cc1ccccc1)NC(=O)[C@H](CCC(=O)O)NC(=O)[C@H]1CCC[C@@H]1NC(=O)[C@H](C)NC(=O)[C@H](C)NC(=O)[C@H](CCC(N)=O)NC(=O)[C@H]1CCC[C@@H]1NC(=O)[C@H](CCC(=O)O)NC(=O)[C@H](CC(C)C)NC(=O)[C@H](Cc1ccc(O)cc1)NC(=O)[C@H]1CCC[C@@H]1NC(=O)[C@H](CO)NC(=O)[C@@H](NC(=O)[C@H](CC(=O)O)NC(=O)[C@H](CO)NC(=O)[C@@H](NC(=O)[C@H](Cc1ccccc1)NC(=O)[C@@H](NC(=O)CNC(=O)[C@H](CCC(=O)O)NC(=O)[C@H](C)NC(=O)[C@@H](N)Cc1cnc[nH]1)[C@@H](C)O)[C@@H](C)O)C(C)C)C(=O)N[C@@H](C)C(=O)N[C@@H](Cc1c[nH]c2ccccc12)C(=O)N[C@@H](CC(C)C)C(=O)N[C@H](C(=O)N[C@@H](CCCCN)C(=O)NCC(=O)N[C@@H](CCCNC(=N)N)C(=O)NCC(N)=O)C(C)C
[1]
  EC50: 10 nM
[2]
  EC50: 1 nM
[3]
  EC50: 20 nM

## C[C@H](Cc1ccccc1)Nc1ncnc2c1ncn2[C@@H]1O[C@H](CO)[C@@H](O)[C@H]1O
[11]
  log(Tau/KA): 8.96
[12]
  log(Tau/KA): 9.5

## CC[C@H](C)[C@H](NC(=O)[C@@H]1CCCN1C(=O)[C@H](Cc1cnc[nH]1)NC(=O)[C@@H](NC(=O)[C@@H](NC(=O)[C@@H](NC(=O)[C@H](CCCNC(=N)N)NC(=O)CNC)C(C)C)[C@@H](C)CC)C(C)C)C(=O)O
[13]
  Kd: 300 nM

## CN(CCCCNC(=O)c1cc2ccccc2[nH]1)[C@@H]1Cc2cccc3[nH]c(=O)n(c23)C1
D(2) dopamine receptor [14]
  Activity: 66%
D(2) dopamine receptor [15]
  Activity: 96%

## COc1ccccc1Oc1c(NS(=O)(=O)c2ccc(C(C)(C)C)cc2)nc(-c2ncccn2)nc1OCCO
[16]
  pKb: 8.01
[17]
  pKb: 6.15

## CCOc1ccc(-n2c(C(C)N(CC3CCN(C)CC3)C(=O)CCCOCCCCF)nc3ncccc3c2=O)cc1 (configuration not stated)
[18]
  pKb: 6.45
[19]
  pKb: 8.73
[20]
  Ratio: 187

## H-DRVYVHPF-OH [[Val5] - ANGIOTENSIN II]
[13]
  Kd: 1.6 nM

From ChEMBL document CHEMBL4371007, “Biased Ligands of G Protein-Coupled Receptors (GPCRs): Structure-Functional Selectivity Relationships (SFSRs) and Therapeutic Potential” (J Med Chem, 2018)
